Source: patent US20110269799A1 (priority 2008, published 2011)
Several values for one entry are separate records, joined by “and”; a condition that tells them apart may be missing. Identical values can stand only once. Like-named read-outs stand apart in the source and are kept apart here. Marks after values point to notes of the source that are not given here.

How the values were obtained:
[1] = tested on: patients with chronic atrial fibrillation; test: PETRO phase 2 12-week dose finding study, dabigatran etexilate alone or with aspirin vs. warfarin; type: in vivo, human
Text: Primary endpoints were bleeding events and changes in D-dimer. […] Minor bleeding was dose related.

[2] = tested on: cytochrome P-450 drug metabolizing enzymes; test: Cytochrome P-450 metabolism, induction and inhibition; type: in vitro ADME
[3] = tested on: patients with atrial fibrillation
Protocol: PETRO-Ex began while the PETRO study was ongoing and investigators were initially kept blinded to patient treatment group until PETRO was completed. Unblinding investigators to patient treatment was possible thereafter.
Data were summarized descriptively; no hypothesis was to be tested. Events were analyzed on the basis of the treatment at onset. Incidences were reported as number of patients with events as well as normalized to 100 patient-years on the respective treatment.
Patients who completed PETRO on 50 mg b.i.d. were switched to 150 mg q.d. upon entry in the PETRO-Ex study (N=93 patients). […] Patients who were down titrated to 50 mg q.d. based on a glomerular filtration rate<50 mL/min during PETRO were excluded from the long-term trial; patients down-titrated in other dose levels remained on the q.d. treatment at that dose.

[4] = tested on: patients with atrial fibrillation at risk of stroke
Text: Median follow-up was 2.0 years and the primary outcome was stroke or systemic embolism.
Patients were recruited from 951 clinical centers in 44 countries. In brief, patients were eligible if they had atrial fibrillation documented on electrocardiogram at screening or within 6 months; and at least one of the following: prior stroke or transient ischemic attack; left ventricular ejection fraction less than 40%; New York Heart Association heart failure symptoms of Class 2 or greater within 6 months; age at least 75 years; or age at least 65 years with diabetes mellitus, hypertension or coronary artery disease.
The time in therapeutic range was calculated by the method of Rosendaal (Rosendaal F R, et al., A method to determine the optimal intensity of oral anticoagulant therapy, Thromb Haemost, 1993, 69:236-239), excluding INRs from the first week and after discontinuations. […] Concomitant use of aspirin (less than 100 mg/day) or other antiplatelet agents was allowed.
Liver function testing was performed monthly during the first year of follow-up.
The primary study outcome was stroke or systemic embolism. The primary safety outcome was major hemorrhage. Secondary outcomes were stroke, systemic embolism and death. Other outcomes were myocardial infarction, pulmonary embolism, transient ischemic attacks, and hospitalizations. The primary net benefit-risk outcome was the composite of stroke, systemic embolism, pulmonary embolism, myocardial infarction, death or major hemorrhage. Stroke was defined as sudden onset of focal neurological deficit consistent with the territory of a major cerebral artery and categorized as ischemic, hemorrhagic or unspecified. Hemorrhagic transformation of ischemic stroke was not considered as hemorrhagic stroke. Intracranial hemorrhage included hemorrhagic stroke and sub-dural or sub-arachnoid hemorrhage. Systemic embolism was an acute vascular occlusion of an extremity or organ documented by imaging, surgery or autopsy. Major bleeding was defined as a reduction in hemoglobin level of at least […] or transfusion of at least 2 units of blood or symptomatic bleeding in a critical area or organ. Life-threatening bleeding was a subset of major bleeding that included fatal bleeding, symptomatic intracranial bleeding, bleeding with hemoglobin decrease of more than […] or requiring transfusion of more than 4 units of blood or requiring inotropic agents or necessitating surgery. All other bleeding was considered minor.
All primary and secondary outcome events were blindly and doubly adjudicated. An international team of adjudicators reviewed documents in local languages after blinding; or documents were translated by a independent group and blinded centrally. All transient ischemic attacks were reviewed to ensure that strokes had not been missed. To detect possible unreported events, symptom questionnaires were regularly administered to patients, and adverse events and hospitalization reports were scrutinized for unreported primary or secondary outcomes.
If maximum of the two p-values was greater than 0.025, the minimum of the two p-values must be less than 0.0125, one-sided, to claim statistical significance. All analyses were based on intention-to-treat.

[5] = individual patients with LFT abnormalities, one patient (age, sex) per table line

## CCCCCCOC(=O)NC(=N)c1ccc(NCc2nc3cc(C(=O)N(CCC(=O)OCC)c4ccccn4)ccc3n2C)cc1 [Dabigatran etexilate, 1-methyl-2-[N-[4-(N-n-hexyloxycarbonylamidino)phenyl]aminomethyl]benzimidazol-5-ylcarboxylic acid-N-(2-pyridyl)-N-(2-ethoxycarbonylethyl)amides]
[1]; 300 mg b.i.d. plus ASA groups, 12 weeks
  Major bleeding events: 6%
[1]; 50, 150, 300 mg b.i.d.
  Minor bleeding: dose related
[1]; all dabigatran etexilate-treated patients (432)
  Elevated transaminases >3x upper limit of normal (ULN): 0.9%
[2]
  Metabolism by, induction or inhibition of cytochrome P-450 enzymes: not metabolized by and does not induce or inhibit cytochrome P-450 drug metabolizing enzymes
[3]; 50 mg b.i.d.
  Adverse Events leading to premature discontinuation, rate: 21.3 % per year
  Thromboembolic events: more than 12 events per 100 years
[3]; 150 mg b.i.d.
  ALT or AST > 2xULN, rate: 3.1 % per year
  ALT or AST > 3xULN and Bili > 2xULN within 30 days, rate: 0.4 % per year
  ALT or AST > 3xULN, rate: 1.9 % per year
  ALT or AST > 5xULN, rate: 1.0 % per year
  Adverse Events leading to premature discontinuation, rate: 9.8 % per year
  Major Bleeds, of these without aspirin, rate: 3.2 % per year
  Major Bleeds, rate: 4.2 % per year
  Major Bleeds, with aspirin, rate: 8.7 % per year
  Stroke and Systemic Thromboembolism, rate: 1.0 % per year
[3]; 150 mg q.d.
  ALT or AST > 2xULN, rate: 3.4 % per year
  Adverse Events leading to premature discontinuation, rate: 13.7 % per year
  Major Bleeds, of these without aspirin, rate: 6.5 % per year
  Major Bleeds, rate: 5.1 % per year
[3]; 150 mg q.d., per 100 years
  Thromboembolic events: about 5 events
[3]; 300 mg b.i.d.
  ALT or AST > 2xULN, rate: 4.9 % per year
  ALT or AST > 3xULN, rate: 2.4 % per year
  ALT or AST > 5xULN, rate: 1.2 % per year
  Adverse Events leading to premature discontinuation, rate: 25.6 % per year
  Bleeding events: more than 12 per 100 years
  Major Bleeds, of these without aspirin, rate: 6.3 % per year
  Major Bleeds, rate: 12.2 % per year
  Major Bleeds, with aspirin, rate: 32.7 % per year
  Thromboembolic events: about 1 event per 100 years
[3]; 300 mg q.d.
  ALT or AST > 2xULN, rate: 1.5 % per year
  ALT or AST > 3xULN and Bili > 2xULN within 30 days, rate: 0.5 % per year
  ALT or AST > 3xULN, rate: 1.5 % per year
  ALT or AST > 5xULN, rate: 1.5 % per year
  Adverse Events leading to premature discontinuation, rate: 9.6 % per year
  Major Bleeds, of these without aspirin, rate: 2.1 % per year
  Major Bleeds, rate: 2.5 % per year
  Major Bleeds, with aspirin, rate: 3.6 % per year
[3]; 300 mg q.d., per 100 years
  Thromboembolic events: more than 2 events
[3]; PETRO-Ex, 150 mg b.i.d., without concomitant aspirin
  Major bleeding events (per 100 patient years): 3.2%*
[3]; PETRO-Ex, all doses
  LFT abnormalities > 3 xULN (per 100 patient years): 1.7%
[3]; Total, all doses
  ALT or AST > 2xULN, rate: 2.9 % per year
  ALT or AST > 3xULN and Bili > 2xULN within 30 days, rate: 0.4 % per year
  ALT or AST > 3xULN, rate: 1.7 % per year
  ALT or AST > 5xULN, rate: 1.1 % per year
  Adverse Events leading to premature discontinuation, rate: 11.5 % per year
  Major Bleeds, of these without aspirin, rate: 3.2 % per year
  Major Bleeds, rate: 4.2 % per year
  Major Bleeds, with aspirin, rate: 8.5 % per year

## [H]/N=C(/N)c1ccc(NCc2nc3cc(C(=O)N(CCC(=O)O)c4ccccn4)ccc3n2C)cc1 [Dabigatran]
[1]; 12 weeks
  Change in D-dimer levels: comparable to warfarin
[3]; all doses
  Fatal bleeding events, rate: 0.5 % per year
[3]; [5]
  LFT abnormality ALT/ULN: >5x x ULN (4×) and >5x^# x ULN (2×) and >3x x ULN (5×) and >3x^# x ULN
  LFT abnormality AST/ULN: >5x^# x ULN (4×) and >5x x ULN (4×) and >3x x ULN (5×)
[4]; 110 mg b.i.d.
  Rate of hemorrhagic stroke: 0.12 % per year
  Stroke, Ischemic or Unspecified, Rate: 1.35 /100 Person Years
  Stroke, systemic embolism, pulmonary embolism, myocardial infarction death or major bleed (net benefit), Rate: 7.37 /100 Person Years
[4]; 110 mg vs. Warfarin
  Extracranial Bleeding, RR: 0.93
  First Hospitalization, RR: 0.92
  Non-disabling Stroke Modified Rankin 0-2, RR: 0.87
  Stroke or systemic embolism, RR: 0.91
  Stroke, Hemorrhagic, RR: 0.31
  Stroke, RR: 0.92
  Stroke, systemic embolism, pulmonary embolism, myocardial infarction death or major bleed (net benefit), RR: 0.92
[4]; 150 mg b.i.d.
  Rate of hemorrhagic stroke: 0.10 % per year
  Stroke, systemic embolism, pulmonary embolism, myocardial infarction death or major bleed (net benefit), Rate: 7.22 /100 Person Years
[4]; 150 mg vs. 110 mg
  Stroke, Ischemic or Unspecified, RR: 0.68
  Stroke, RR: 0.70
  Stroke, systemic embolism, pulmonary embolism, myocardial infarction death or major bleed (net benefit), RR: 0.98
[4]; 150 mg vs. Warfarin
  First Hospitalization, RR: 0.97
  Major Bleeding, Other Major, RR: 1.07
  Non-disabling Stroke Modified Rankin 0-2, RR: 0.62
  Stroke or systemic embolism, RR: 0.66
  Stroke, Hemorrhagic, RR: 0.26
  Stroke, Ischemic or Unspecified, RR: 0.76
  Stroke, RR: 0.64
  Stroke, systemic embolism, pulmonary embolism, myocardial infarction death or major bleed (net benefit), RR: 0.90
[4]; in vivo
  Hepatotoxicity in serial measurement of liver function tests: no evidence of hepatotoxicity
